# Test results reported in patent US10495796B2, “Near-infrared cut filter” (AGC INC., priority 2012, dated 2019).
# Assays:
# [1] = Solubility of dye to organic solvent; assay type: physicochemical; conditions: 50° C., mass % of the dye to the mass of the entire solution; for Solubility to organic solvent: MIBK: methyl isobutyl ketone
# Method: Regarding the dyes (A11-1) to (A11-10) and (A11-20) to (A11-27) obtained above, solubility to organic solvent was evaluated as follows.
# Three kinds of solvents, cyclohexanone, methyl isobutyl ketone (MIBK), toluene, were used as the organic solvent in the solubility test. Note that in Table 3, % is mass % of the dye to the mass of the entire solution. Further, the temperature of each organic solvent in the solubility test was 50° C.
# [2] = Absorption characteristics: transmission spectrum of near-infrared absorbing layer of NIR filter (UV-visible spectrophotometer); assay type: physicochemical
# Method: Further, the transmittance of the near-infrared absorbing layer can be measured by using an ultraviolet visible light spectrophotometer. For example, when the near-infrared absorbing layer is provided on a glass substrate, the transmittance is calculated by subtracting the transmittance of only the glass substrate. Note that the transmittance of light of the near-infrared absorbing layer refers to, unless otherwise stated, a ratio to light incident from a direction orthogonal to a main surface of a sample, the ratio of this light traveling straight inside the sample and transmitted to an opposite side. Further, when the transmittance is measured by making light incident from a direction other than the direction orthogonal to the main surface of the sample in the measurement of transmittance of light, an angle made by a straight line indicating the direction of the incident light to a line orthogonal to the main surface is called an incident angle.
# In the condition (ii-3), the value calculated by nd(B)×(λa−λc) (hereinafter, this value may also be described as “Is value”) is a value to be an index indicating steepness of the absorption curve in the vicinity of the boundary between the visible light region and the near-infrared region with respect to a transmission spectrum of the near-infrared absorbing layer. When this value is 115 or less, the absorption curve in the vicinity of the boundary between the visible light region and the near-infrared region is steep with respect to the near-infrared absorbing layer, which can be said as preferable for the NIR filter.
# That is, with respect to the transmission spectrum of the near-infrared absorbing layer, the smaller the difference (λa−λc) between the shortest wavelength λa with transmittance of 1% in the region of 650 nm to 800 nm and the wavelength λc with transmittance of 70% on a shorter wavelength side than the λa, the steeper the absorption curve in the vicinity of the boundary between the visible light region and the near-infrared region. Here, λa−λc also depends on a wavelength width having transmittance of 1% or less (λb−λa; λb is the longest wavelength with transmittance of 1% in the wavelength region of 650 nm to 800 nm). Accordingly, in order to compare and evaluate the steepness of the absorption curve in the above region of the transmission spectrum of the near-infrared absorbing layer, λb−λa is fixed to 30 nm. That is, λb−λa of the near-infrared absorbing layer which the present filter has is not limited to 30 nm.
# Further, in the Is value, (λa−λc) is multiplied by the refractive index nd(B) of the transparent resin (B) contained in the near-infrared absorbing layer as a coefficient. This is to standardize the difference in steepness among resins.
# Regarding transmittance (%/nm) of the NIR filters 1 to 109 obtained above, transmission spectra were measured and calculated by using an ultraviolet visible light spectrophotometer (U-4100 type spectrophotometer made by Hitachi High-Technologies Corporation). Analysis results of transmission spectra of the near-infrared absorbing layers which the NIR filters have are presented in Table 4, Table 5 and Table 6 for the NIR filters 1 to 25, 26 to 51, 52 to 75, respectively, and are presented in Table 7 and Table 8 for the NIR filters 76 to 94, 95 to 109, respectively. In Table 4 to Table 8, the ratios (parts by mass) of dyes to 100 parts by mass of the transparent resin (B) and film thicknesses of the near-infrared absorbing layers are described together.
# Further, conditions of preferred transmission spectra of the near-infrared absorbing layers in the present filter and Is values obtained by the formula: nd(B)×(λa-λc) described in above (ii-3) are described in Table 4 to Table 8 together with λa in the condition (ii-1) and λb-λa in the condition (ii-2). Note that values described in Table 4 to Table 8 are values obtained by subtracting transmittance of a glass plate from transmittance of an NIR filter. […]
# [3] = transparent resin polycarbonate SP1516, nd(B) 1.60, film thickness 0.9 μm
# [4] = transparent resin acrylic resin BR50, nd(B) 1.56, film thickness 2.3 μm
# [5] = transparent resin polycarbonate EP5000, nd(B) 1.63, film thickness 2.4 μm
# [6] = transparent resin polycarbonate SP3810, nd(B) 1.63, film thickness 1.0 μm
# [7] = transparent resin polycarbonate SP3810, nd(B) 1.63, film thickness 2.8 μm
smiles,measurement,setting,value
"CCCCCC(=O)Nc1cc2c(cc1C1=C([O-])C(=c3cc4c(cc3NC(=O)CCCCC)=[N+](C)C(C)C4(C)C)C1=O)C(C)(C)C(C)N2C (stereo not drawn) [Example A11-22, reference compound]",Solubility to organic solvent: Cyclohexanone,[1],<1.0% mass %
same,Solubility to organic solvent: MIBK,[1],<1.0% mass %
same,Solubility to organic solvent: Toluene,[1],1.00% mass %
same,430 nm to 600 nm Average transmittance,[2]; [3],95.3%
same,Is value (nd(B)×(λa-λc)),[2]; [3],126.4
same,λa,[2]; [3],691 nm
same,λa − λc,[2]; [3],79 nm
same,λb,[2]; [3],721 nm
same,λb − λa,[2]; [3],30 nm
same,λc,[2]; [3],612 nm
same,λmax,[2]; [3],707 nm
CCCC(C)(C)C(=O)Nc1cc2c(cc1C1=C([O-])C(=c3cc4c(cc3NC(=O)C(C)(C)CCC)=[N+](C)C(C)C4(C)C)C1=O)C(C)(C)C(C)N2C (stereo not drawn) [Example A11-14],430 nm to 600 nm Average transmittance,[2]; [4],94.7%
same,Is value (nd(B)×(λa-λc)),[2]; [4],110.9
same,λa,[2]; [4],684 nm
same,λa − λc,[2]; [4],71 nm
same,λb,[2]; [4],714 nm
same,λb − λa,[2]; [4],30 nm
same,λc,[2]; [4],613 nm
same,λmax,[2]; [4],700 nm
same,430 nm to 600 nm Average transmittance,[2]; [5],95.5%
same,Is value (nd(B)×(λa-λc)),[2]; [5],112.6
same,λa,[2]; [5],689 nm
same,λa − λc,[2]; [5],69 nm
same,λb,[2]; [5],719 nm
same,λb − λa,[2]; [5],30 nm
same,λc,[2]; [5],620 nm
same,λmax,[2]; [5],705 nm
same,430 nm to 600 nm Average transmittance,[2]; [6],97.1%
same,Is value (nd(B)×(λa-λc)),[2]; [6],112.8
same,λa,[2]; [6],689 nm
same,λa − λc,[2]; [6],69 nm
same,λb,[2]; [6],719 nm
same,λb − λa,[2]; [6],30 nm
same,λc,[2]; [6],620 nm
same,λmax,[2]; [6],700 nm
same,430 nm to 600 nm Average transmittance,[2]; [7],95.6%
same,Is value (nd(B)×(λa-λc)),[2]; [7],111.2
same,λa,[2]; [7],689 nm
same,λa − λc,[2]; [7],68 nm
same,λb,[2]; [7],719 nm
same,λb − λa,[2]; [7],30 nm
same,λc,[2]; [7],621 nm
same,λmax,[2]; [7],705 nm
"CCCCCCC(=O)Nc1cc2c(cc1C1=C([O-])C(=c3cc4c(cc3NC(=O)CCCCCC)=[N+](C)C(C)C4(C)C)C1=O)C(C)(C)C(C)N2C (stereo not drawn) [Example A11-23, reference compound]",Solubility to organic solvent: Cyclohexanone,[1],2.50% mass %
same,Solubility to organic solvent: MIBK,[1],<1.0% mass %
same,Solubility to organic solvent: Toluene,[1],2.50% mass %
"CCCC(=O)Nc1cc2c(cc1C1=C([O-])C(=c3cc4c(cc3NC(=O)CCC)=[N+](C)C(C)C4(C)C)C1=O)C(C)(C)C(C)N2C (stereo not drawn) [Example A11-21, reference compound]",Solubility to organic solvent: Cyclohexanone,[1],<1.0% mass %
same,Solubility to organic solvent: MIBK,[1],<1.0% mass %
same,Solubility to organic solvent: Toluene,[1],<1.0% mass %
CCCCCCCCCC(CCCCCCC)C(=O)Nc1cc2c(cc1C1=C([O-])C(=c3cc4c(cc3NC(=O)C(CCCCCCC)CCCCCCCCC)=[N+](C)C(C)C4(C)C)C1=O)C(C)(C)C(C)N2C (stereo not drawn) [Example A11-3],Solubility to organic solvent: Cyclohexanone,[1],10%< mass %
same,Solubility to organic solvent: MIBK,[1],10%< mass %
same,Solubility to organic solvent: Toluene,[1],10%< mass %
Cc1ccc(C)c(OCCCC(C)(C)C(=O)Nc2cc3c(cc2C2=C([O-])C(=c4cc5c(cc4NC(=O)C(C)(C)CCCOc4cc(C)ccc4C)=[N+](C)C(C)C5(C)C)C2=O)C(C)(C)C(C)N3C)c1 (stereo not drawn) [Example A11-13],430 nm to 600 nm Average transmittance,[2]; [4],94.8%
same,Is value (nd(B)×(λa-λc)),[2]; [4],110.9
same,λa,[2]; [4],683 nm
same,λa − λc,[2]; [4],71 nm
same,λb,[2]; [4],713 nm
same,λb − λa,[2]; [4],30 nm
same,λc,[2]; [4],612 nm
same,λmax,[2]; [4],700 nm
same,430 nm to 600 nm Average transmittance,[2]; [5],96.1%
same,Is value (nd(B)×(λa-λc)),[2]; [5],111.0
same,λa,[2]; [5],689 nm
same,λa − λc,[2]; [5],68 nm
same,λb,[2]; [5],719 nm
same,λb − λa,[2]; [5],30 nm
same,λc,[2]; [5],621 nm
same,λmax,[2]; [5],705 nm
same,430 nm to 600 nm Average transmittance,[2]; [6],97.3%
same,Is value (nd(B)×(λa-λc)),[2]; [6],112.8
same,λa,[2]; [6],689 nm
same,λa − λc,[2]; [6],69 nm
same,λb,[2]; [6],719 nm
same,λb − λa,[2]; [6],30 nm
same,λc,[2]; [6],620 nm
same,λmax,[2]; [6],700 nm
same,430 nm to 600 nm Average transmittance,[2]; [7],95.1%
same,Is value (nd(B)×(λa-λc)),[2]; [7],112.8
same,λa,[2]; [7],689 nm
same,λa − λc,[2]; [7],69 nm
same,λb,[2]; [7],719 nm
same,λb − λa,[2]; [7],30 nm
same,λc,[2]; [7],620 nm
same,λmax,[2]; [7],705 nm
"CC(C)C(=O)Nc1cc2c(cc1C1=C([O-])C(=c3cc4c(cc3NC(=O)C(C)C)=[N+](C)C(C)C4(C)C)C1=O)C(C)(C)C(C)N2C (stereo not drawn) [Example A11-26, reference compound]",Solubility to organic solvent: Cyclohexanone,[1],<1.0% mass %
same,Solubility to organic solvent: MIBK,[1],<1.0% mass %
same,Solubility to organic solvent: Toluene,[1],<1.0% mass %
CCCCC(CC)C(=O)Nc1cc2c(cc1C1=C([O-])C(=c3cc4c(cc3NC(=O)C(CC)CCCC)=[N+](CC)C(C)C4(C)C)C1=O)C(C)(C)C(C)N2CC (stereo not drawn) [Example A11-5],Solubility to organic solvent: Cyclohexanone,[1],10%< mass %
same,Solubility to organic solvent: MIBK,[1],10%< mass %
same,Solubility to organic solvent: Toluene,[1],10%< mass %
CCN1c2cc(NC(=O)C(C)(C)CCCOc3cc(C)ccc3C)c(C3=C([O-])C(=c4cc5c(cc4NC(=O)C(C)(C)CCCOc4cc(C)ccc4C)=[N+](CC)C(C)C5(C)C)C3=O)cc2C(C)(C)C1C (stereo not drawn) [Example A11-8],Solubility to organic solvent: Cyclohexanone,[1],10%< mass %
same,Solubility to organic solvent: MIBK,[1],10%< mass %
same,Solubility to organic solvent: Toluene,[1],10%< mass %
CCCC(C)C(=O)Nc1cc2c(cc1C1=C([O-])C(=c3cc4c(cc3NC(=O)C(C)CCC)=[N+](C)C(C)C4(C)C)C1=O)C(C)(C)C(C)N2C (stereo not drawn) [Example A11-10],Solubility to organic solvent: Cyclohexanone,[1],10%< mass %
same,Solubility to organic solvent: MIBK,[1],1.00% mass %
same,Solubility to organic solvent: Toluene,[1],3.00% mass %
CCCCC(CC)C(=O)Nc1cc2c(cc1C1=C([O-])C(=c3cc4c(cc3NC(=O)C(CC)CCCC)=[N+](CCC)C(C)C4(C)C)C1=O)C(C)(C)C(C)N2CCC (stereo not drawn) [Example A11-6],Solubility to organic solvent: Cyclohexanone,[1],10%< mass %
same,Solubility to organic solvent: MIBK,[1],10%< mass %
same,Solubility to organic solvent: Toluene,[1],10%< mass %
